Consider 20 molecules from patent US20260055079A1, “PHTHALAZINONE COMPOUNDS AS PARP7 INHIBITORS” (AZKARRA THERAPEUTICS, INC., priority 2022, published 2026).

One experiment has as its target His-GST-PARP7 (Homo sapiens (Human), UniProt Q7Z3E1). Nature of the experiment: PARP7 biochemical assay. The conditions noted are these: read-out: PARP7 IC50.
In experiment [1] the test system is NCI-H1373 (human lung adenocarcinoma) cells. Description: Cell proliferation assay (CellTiter-Glo), NCI-H1373. Format: cell-based. The conditions noted are these: Homo sapiens, NCI-H1373, 144 h, read-out: NCI-H1373 GI50.

pIC50: −log10 of the molar value. Where two headings read alike, the source gives them in different places. Bounds are passed on as bounds.

His-GST-PARP7, sequence (Q7Z3E1 whole entry): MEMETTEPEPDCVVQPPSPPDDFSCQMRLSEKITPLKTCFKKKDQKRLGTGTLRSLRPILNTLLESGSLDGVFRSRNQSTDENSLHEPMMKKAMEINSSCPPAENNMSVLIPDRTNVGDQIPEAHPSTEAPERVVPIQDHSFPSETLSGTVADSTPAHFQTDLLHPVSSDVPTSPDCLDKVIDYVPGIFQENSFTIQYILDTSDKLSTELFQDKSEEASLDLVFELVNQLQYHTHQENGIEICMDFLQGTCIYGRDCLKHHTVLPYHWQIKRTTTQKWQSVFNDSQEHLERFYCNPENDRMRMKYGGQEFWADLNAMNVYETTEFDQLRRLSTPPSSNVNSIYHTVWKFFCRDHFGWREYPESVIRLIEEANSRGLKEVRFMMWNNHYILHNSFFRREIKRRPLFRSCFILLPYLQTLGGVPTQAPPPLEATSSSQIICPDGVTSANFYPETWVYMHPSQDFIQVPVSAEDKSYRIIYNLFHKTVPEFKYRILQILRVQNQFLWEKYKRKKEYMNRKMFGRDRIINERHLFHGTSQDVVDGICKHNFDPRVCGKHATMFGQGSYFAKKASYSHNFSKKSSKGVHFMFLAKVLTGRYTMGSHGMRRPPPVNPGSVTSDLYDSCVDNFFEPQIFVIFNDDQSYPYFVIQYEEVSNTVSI

One may read the pIC50 as the negative decadic logarithm of the IC50, by convention in mol/L. By GI50 is commonly meant the concentration at which growth is held to half of that of the control. Take `CC#Cc1ccc2c(=O)[nH]nc(Cc3ccc(F)c(C(=O)N(C)C4CN(c5ccc(C#N)cn5)C4)c3)c2c1` [Example 201, N-(1-(5-Cyanopyridin-2-yl)azetidin-3-yl)-2-fluoro-N-methyl-5-((4-oxo-7-(prop-1-yn-1-yl)-3,4-dihydrophthalazin-1-yl)methyl)benzamide]: the negative logarithm of the IC50 (pIC50) at His-GST-PARP7 was 5.70 to 6.30. For the same molecule, the GI50 in experiment [1] (6 days, CellTiter-Glo) lay within 1000 to 5000 nM.
`CC#Cc1ccc2c(=O)[nH]nc(Cc3ccc(F)c(C(=O)N4CC5(C4)CN(c4ccc(C#N)cn4)C5)c3)c2c1` [Example 60, 6-(6-(2-Fluoro-5-((4-oxo-7-(prop-1-yn-1-yl)-3,4-dihydrophthalazin-1-yl)methyl)benzoyl)-2,6-diazaspiro[3.3]heptan-2-yl)nicotinonitrile]: on His-GST-PARP7, the pIC50 is above 7.30. For the same molecule, the GI50 in experiment [1] (6 days, CellTiter-Glo) lay in the range of 1000 to 5000 nM.
For `CC#Cc1cc2c(Cc3ccc(F)c(C(=O)N4CCN(c5ccc(C#N)cn5)CC4)c3)n[nH]c(=O)c2cc1C` [Example 83, 6-(4-(2-Fluoro-5-((6-methyl-4-oxo-7-(prop-1-yn-1-yl)-3,4-dihydrophthalazin-1-yl)methyl)benzoyl)piperazin-1-yl)nicotinonitrile], at His-GST-PARP7, the pIC50 is above 7.30. The GI50 in experiment [1] (6 days, CellTiter-Glo) was 100 to 1000 nM.
Consider `CC#Cc1ccc2c(=O)[nH]nc(Cc3ccc(F)c(C(=O)N4CCn5c(nnc5C5CC5)C4)c3)c2c1` [Example 63, 4-[[3-(3-cyclopropyl-6,8-dihydro-5H-[1,2,4]triazolo[4,3-a]pyrazine-7-carbonyl)-4-fluoro-phenyl]methyl]-6-prop-1-ynyl-2H-phthalazin-1-one], for which, at His-GST-PARP7, the pIC50 was above 7.30. The concentration for 50% growth inhibition (GI50) in experiment [1] (6 days, CellTiter-Glo) was above 5000 nM.
As for `CC#Cc1ccc2c(=O)[nH]nc(Cc3ccc(F)c(C(=O)N4CCN(C(=O)CC#N)CC4)c3)c2c1` [Example 58, 3-(4-(2-Fluoro-5-((4-oxo-7-(prop-1-ynyl)-3,4-dihydrophthalazin-1-yl)methyl)benzoyl)piperazin-1-yl)-3-oxopropanenitrile], the pIC50 on His-GST-PARP7 was above 7.30. Further, in experiment [1] (6 days, CellTiter-Glo), the 50% growth inhibitory concentration (GI50) was above 5000 nM.
Consider `CC#Cc1ccc2c(=O)[nH]nc(C(C)OCCC(=O)N3CCN(c4ncc(C(F)(F)F)cn4)CC3)c2c1` (stereo not shown) [Example 192, 4-(1-(3-Oxo-3-(4-(5-(trifluoromethyl)pyrimidin-2-yl)piperazin-1-yl)propoxy)ethyl)-6-(prop-1-ynyl)phthalazin-1(2H)-one], for which the pIC50 at His-GST-PARP7 is above 7.30. Further, the GI50 in experiment [1] (6 days, CellTiter-Glo) was in the range of 100 to 1000 nM.
Take `N#Cc1ccc(N2CCN(C(=O)c3cccc(Cc4n[nH]c(=O)c5ccc(Cl)cc45)c3)CC2)nc1` [Example 5, 6-(4-(3-((7-Chloro-4-oxo-3,4-dihydrophthalazin-1-yl)methyl)benzoyl)piperazin-1-yl)nicotinonitrile]: the concentration for 50% growth inhibition (GI50) in experiment [1] is 100 to 1000 nM.
For the molecule `C#CCNc1ccc2c(=O)[nH]nc(Cc3ccc(F)c(C(=O)N4CCn5c(nnc5C(F)(F)F)C4)c3)c2c1` [Example 185, 4-(4-Fluoro-3-(3-(trifluoromethyl)-5,6,7,8-tetrahydro-[1,2,4]triazolo[4,3-a]pyrazine-7-carbonyl)benzyl)-6-(prop-2-yn-1-ylamino)phthalazin-1(2H)-one], the negative-log IC50 (pIC50) on His-GST-PARP7 was 6.30 to 7.00. Also, the 50% growth inhibitory concentration (GI50) in experiment [1] (6 days, CellTiter-Glo) was above 5000 nM.
On to `CC#Cc1ccc2c(=O)[nH]nc(Cc3ccc(F)c(C(=O)N4CC(N(C)c5cc(C#N)ccn5)C4)c3)c2c1` [Example 69], for which, at His-GST-PARP7, the negative-log IC50 (pIC50) was below 5.70. Further, the GI50 in experiment [1] (6 days, CellTiter-Glo) is above 5000 nM.
Turning to `N#Cc1ccc(N2CCN(C(=O)c3cc(Cc4n[nH]c(=O)c5ccc(NCC(F)(F)F)cc45)ccc3F)CC2)nc1` [Example 22, 6-(4-(2-Fluoro-5-((4-oxo-7-((2,2,2-trifluoroethyl)amino)-3,4-dihydrophthalazin-1-yl)methyl)benzoyl)piperazin-1-yl)nicotinonitrile], the negative-log IC50 (pIC50) on His-GST-PARP7 was above 7.30. For the same molecule, the GI50 in experiment [1] (6 days, CellTiter-Glo) was in the range of 1000 to 5000 nM.
Turning to `O=C(c1cc(Cc2n[nH]c(=O)c3ccc(OC4CCC4)cc23)ccc1F)N1CCn2c(nnc2C(F)(F)F)C1` [Example 145, 6-cyclobutoxy-4-(4-fluoro-3-(3-(trifluoromethyl)-5,6,7,8-tetrahydro-[1,2,4]triazolo[4,3-a]pyrazine-7-carbonyl)benzyl)phthalazin-1(2H)-one], the pIC50 at His-GST-PARP7 is above 7.30. In experiment [1] (6 days, CellTiter-Glo), the 50% growth inhibitory concentration (GI50) was in the range of 1000 to 5000 nM.
On the same counts, the results for `N#Cc1ccc(N2CCN(C(=O)c3cc(Cc4n[nH]c(=O)c5ccc(NC6CC6)cc45)ccc3F)CC2)nc1` [Example 12, 6-(4-(5-((7-(Cyclopropylamino)-4-oxo-3,4-dihydrophthalazin-1-yl)methyl)-2-fluorobenzoyl)piperazin-1-yl)nicotinonitrile] are above 7.30 and 100 to 1000 nM.
On to `CC#Cc1ccc2c(=O)[nH]nc(Cc3ccc(F)c(C(=O)N4CCN(c5ccc(C#N)cn5)C(=O)C4(C)C)c3)c2c1` [Example 71, 6-(4-(2-Fluoro-5-((4-oxo-7-(prop-1-yn-1-yl)-3,4-dihydrophthalazin-1-yl)methyl)benzoyl)-3,3-dimethyl-2-oxopiperazin-1-yl)nicotinonitrile], for which the pIC50 at His-GST-PARP7 is above 7.30. Moreover, in experiment [1] (6 days, CellTiter-Glo), the 50% growth inhibitory concentration (GI50) lay within 1000 to 5000 nM.
For `N#Cc1ccc(N2CCN(C(=O)c3cc(Cc4n[nH]c(=O)c5ccc(OCC6CC6)cc45)ccc3F)CC2)nc1` [Example 7, 6-(4-(5-((7-(Cyclopropylmethoxy)-4-oxo-3,4-dihydrophthalazin-1-yl)methyl)-2-fluorobenzoyl)piperazin-1-yl)nicotinonitrile], the GI50 in experiment [1] is below 100 nM.
As for `COc1ccc2c(=O)[nH]nc(Cc3ccc(S(C)(=O)=O)c(C(=O)N4CCN(c5ccc(C#N)cn5)CC4)c3)c2c1` [Example 182, 6-(4-(5-((7-Methoxy-4-oxo-3,4-dihydrophthalazin-1-yl)methyl)-2-(methylsulfonyl)benzoyl)piperazin-1-yl)nicotinonitrile], the pIC50 on His-GST-PARP7 was above 7.30. The GI50 in experiment [1] (6 days, CellTiter-Glo) was above 5000 nM.
For `CC#Cc1ccc2c(=O)[nH]nc(Cc3ccc(F)c(C(=O)N4CC(N(C)c5ccc(C#N)cn5)C4)c3)c2c1` [Example 70, 6-((1-(2-Fluoro-5-((4-oxo-7-(prop-1-yn-1-yl)-3,4-dihydrophthalazin-1-yl)methyl)benzoyl)azetidin-3-yl)(methyl)amino)nicotinonitrile 2,2,2-trifluoroacetate], the negative logarithm of the IC50 (pIC50) on His-GST-PARP7 was below 5.70. In addition, the GI50 in experiment [1] (6 days, CellTiter-Glo) is above 5000 nM.
Regarding `N#Cc1ccc(N2CCN(C(=O)c3cccc(Cc4n[nH]c(=O)c5ccc(Oc6ccccc6)cc45)c3)CC2)nc1` [Example 2, 6-(4-(3-((4-Oxo-7-phenoxy-3,4-dihydrophthalazin-1-yl)methyl)benzoyl)piperazin-1-yl)nicotinonitrile], in experiment [1], the concentration for 50% growth inhibition (GI50) was below 100 nM.
As to `N#Cc1ccc(N2CCN(C(=O)c3cccc(Cc4n[nH]c(=O)c5ccc(F)cc45)c3)CC2)nc1` [Example 6, 6-(4-(3-((7-Fluoro-4-oxo-3,4-dihydrophthalazin-1-yl)methyl)benzoyl)piperazin-1-yl)nicotinonitrile], the concentration for 50% growth inhibition (GI50) in experiment [1] was in the range of 100 to 1000 nM.
As to `CN(c1cc(C#N)ccn1)C1CN(S(=O)(=O)c2cc(Cc3n[nH]c(=O)c4ccc(OC5CCC5)cc34)ccc2F)C1` [Example 189, 2-((1-((5-((7-cyclobutoxy-4-oxo-3,4-dihydrophthalazin-1-yl)methyl)-2-fluorophenyl)sulfonyl)azetidin-3-yl)(methyl)amino)isonicotinonitrile], the pIC50 on His-GST-PARP7 is 5.70 to 6.30.
`O=C(C1CC1)N1CCN(c2noc3ccc(Cc4n[nH]c(=O)c5ccc(OC6CCC6)cc45)cc23)CC1` [Example 210, 6-cyclobutoxy-4-((3-(4-(cyclopropanecarbonyl)piperazin-1-yl)benzo[d]isoxazol-5-yl)methyl)phthalazin-1(2H)-one]: the pIC50 at His-GST-PARP7 is 5.70 to 6.30.
